Read-outs that look alike come from different tables or passages of the source.
Experiments:
Type in all cases: biochemical
[1] = target: recombinant human MMP-13 (Homo sapiens (Human), UniProt P45452); assay: MMP selectivity assay, MMP-13; settings: Table 2 selectivity profile; read-out: IC50, Target: MMP 13
Method: (§1) The inhibitory effect of compounds on the rate of cleaving fluorogenic MMP substrate (Enzo, BML-P128) by recombinant human MMP-12 catalytic domain (Enzo, BML-SE138) was carried out by methods known in the art. Briefly, to each well of a 96-well black opaque plate, all the reagents were sequentially added by pipetting, and the final reaction contained 4 nM of recombinant human MMP-12 catalytic domain, 4 μM of fluorogenic MMP substrate, and various concentrations (0.057 nM to 1,000 nM) of tested compound dilutions in HEPES buffer (pH 7.5) containing 10 mM of CaCl2, 0.01% Brij® 35 (polyoxyethylene (23) lauryl ether), and 0.1 mg/ml of BSA.
(§2) The enzyme and compounds were pre-incubated on a shaker to mix in wells. After an hour of mixing, fluorogenic substrate was added to each well. Reaction without enzyme was used as a blank control in the plate. The plate was then fed into a plate reader to measure fluorescence intensity at Excitation/Emission wavelengths of 340 nm/440 nm every 10 mins for at least 1 hour at 37° C. The IC50 of each compound in MMP-12 inhibition was determined by using a readout obtained at time point 30 minutes.
(§3) The MMP selectivity assay was performed by using other recombinant human MMPs, including MMP-1, MMP-2, MMP-3, MMP-7, MMP-8, MMP-9, MMP-10, MMP-12, MMP-13, and MMP-14. The IC50 of the compounds for the other recombinant human MMPs was determined as described above in Example 1, and are shown in Table 2. The IC50 values are reported as follows: A=less than 1 nM, B=1 nM to 10 nM, C=10 nM to 100 nM, D=greater than 100 nM.

[2] = target: recombinant human MMP-3 (Homo sapiens (Human), UniProt P08254); assay: MMP selectivity assay, MMP-3; settings: Table 2 selectivity profile; read-out: IC50, Target: MMP 3
Sequence of recombinant human MMP-3 (P08254 100-477): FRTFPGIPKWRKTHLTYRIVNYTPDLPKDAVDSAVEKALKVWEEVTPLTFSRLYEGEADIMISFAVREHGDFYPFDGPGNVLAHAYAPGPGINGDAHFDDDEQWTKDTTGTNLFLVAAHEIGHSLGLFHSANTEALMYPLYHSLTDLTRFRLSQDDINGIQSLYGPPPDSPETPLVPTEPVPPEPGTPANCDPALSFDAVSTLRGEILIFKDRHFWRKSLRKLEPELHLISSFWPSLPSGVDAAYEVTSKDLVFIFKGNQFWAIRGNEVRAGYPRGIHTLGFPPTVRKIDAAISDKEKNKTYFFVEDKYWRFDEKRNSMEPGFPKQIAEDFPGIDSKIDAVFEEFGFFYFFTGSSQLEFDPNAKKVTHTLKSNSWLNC
Method: as §1, §2, §3

[3] = target: recombinant human MMP-1 (Homo sapiens (Human), UniProt P03956); assay: MMP selectivity assay, MMP-1; settings: Table 2 selectivity profile; read-out: IC50, Target: MMP 1
Sequence of recombinant human MMP-1 (P03956 100-469): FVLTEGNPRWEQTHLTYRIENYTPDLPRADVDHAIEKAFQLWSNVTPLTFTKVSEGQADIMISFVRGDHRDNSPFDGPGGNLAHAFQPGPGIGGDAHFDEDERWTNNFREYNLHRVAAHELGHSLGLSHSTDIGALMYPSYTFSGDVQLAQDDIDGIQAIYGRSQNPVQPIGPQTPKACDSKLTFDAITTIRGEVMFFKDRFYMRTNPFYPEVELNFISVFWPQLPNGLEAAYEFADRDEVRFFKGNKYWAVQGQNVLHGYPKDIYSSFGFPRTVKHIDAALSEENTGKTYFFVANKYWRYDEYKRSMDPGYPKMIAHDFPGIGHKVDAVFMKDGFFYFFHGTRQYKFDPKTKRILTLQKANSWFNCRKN
Method: as §1, §2, §3

[4] = target: recombinant human MMP-9 (Homo sapiens (Human), UniProt P14780); assay: MMP selectivity assay, MMP-9; settings: Table 2 selectivity profile; read-out: IC50, Target: MMP 9
Sequence of recombinant human MMP-9 (P14780 94-707): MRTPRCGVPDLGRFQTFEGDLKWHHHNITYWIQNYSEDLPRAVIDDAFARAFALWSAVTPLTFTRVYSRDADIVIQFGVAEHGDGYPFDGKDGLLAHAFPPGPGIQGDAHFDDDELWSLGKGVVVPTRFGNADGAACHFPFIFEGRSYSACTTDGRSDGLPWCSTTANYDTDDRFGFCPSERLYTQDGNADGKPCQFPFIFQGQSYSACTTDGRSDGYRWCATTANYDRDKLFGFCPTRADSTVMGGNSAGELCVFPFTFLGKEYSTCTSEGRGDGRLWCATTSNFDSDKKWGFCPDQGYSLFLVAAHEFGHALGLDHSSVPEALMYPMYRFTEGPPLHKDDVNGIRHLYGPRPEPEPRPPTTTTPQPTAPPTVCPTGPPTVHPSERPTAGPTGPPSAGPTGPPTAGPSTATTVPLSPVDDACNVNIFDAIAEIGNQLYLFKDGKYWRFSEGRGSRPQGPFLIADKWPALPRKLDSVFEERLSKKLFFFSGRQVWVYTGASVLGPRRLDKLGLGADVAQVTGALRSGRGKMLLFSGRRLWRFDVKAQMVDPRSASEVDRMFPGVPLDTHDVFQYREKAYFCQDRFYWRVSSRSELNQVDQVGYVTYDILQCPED
Method: as §1, §2, §3

[5] = target: recombinant human MMP-12 catalytic domain (Homo sapiens (Human), UniProt P39900); assay: MMP-12 inhibitory assay, fluorogenic substrate cleavage
Sequence of recombinant human MMP-12 catalytic domain (P39900 106-268): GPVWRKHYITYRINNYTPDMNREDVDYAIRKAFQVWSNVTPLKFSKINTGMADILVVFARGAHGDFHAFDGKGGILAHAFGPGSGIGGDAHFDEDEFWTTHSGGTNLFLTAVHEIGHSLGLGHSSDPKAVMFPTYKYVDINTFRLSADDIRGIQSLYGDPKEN
Method: as §1, §2

[6] = target: recombinant human MMP-8 (Homo sapiens (Human), UniProt P22894); assay: MMP selectivity assay, MMP-8; settings: Table 2 selectivity profile; read-out: IC50, Target: MMP 8
Sequence of recombinant human MMP-8 (P22894 101-467): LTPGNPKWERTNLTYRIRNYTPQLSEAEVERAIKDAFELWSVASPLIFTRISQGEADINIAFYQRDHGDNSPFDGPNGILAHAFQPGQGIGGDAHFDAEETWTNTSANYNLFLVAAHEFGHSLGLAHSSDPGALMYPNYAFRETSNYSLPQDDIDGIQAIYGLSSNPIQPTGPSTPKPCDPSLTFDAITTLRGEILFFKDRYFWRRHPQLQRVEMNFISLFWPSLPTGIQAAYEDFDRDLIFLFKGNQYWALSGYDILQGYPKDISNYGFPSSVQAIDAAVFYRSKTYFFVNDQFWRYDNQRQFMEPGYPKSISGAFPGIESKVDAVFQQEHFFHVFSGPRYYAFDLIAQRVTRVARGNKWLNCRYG
Method: as §1, §2, §3

[7] = target: recombinant human MMP-10 (Homo sapiens (Human), UniProt P09238); assay: MMP selectivity assay, MMP-10; settings: Table 2 selectivity profile; read-out: IC50, Target: MMP 10
Sequence of recombinant human MMP-10 (P09238 99-476): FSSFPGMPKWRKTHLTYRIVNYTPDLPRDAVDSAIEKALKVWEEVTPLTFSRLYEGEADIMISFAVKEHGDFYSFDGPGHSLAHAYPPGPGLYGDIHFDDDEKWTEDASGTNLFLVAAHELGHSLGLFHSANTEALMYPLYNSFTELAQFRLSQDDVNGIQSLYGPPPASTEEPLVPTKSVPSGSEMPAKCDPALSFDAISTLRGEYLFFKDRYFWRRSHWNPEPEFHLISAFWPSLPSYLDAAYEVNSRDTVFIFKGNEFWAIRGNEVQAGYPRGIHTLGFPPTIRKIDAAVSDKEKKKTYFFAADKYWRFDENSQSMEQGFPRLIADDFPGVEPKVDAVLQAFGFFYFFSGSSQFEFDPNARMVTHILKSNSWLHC
Method: as §1, §2, §3

[8] = target: recombinant human MMP-2 (Homo sapiens (Human), UniProt P08253); assay: MMP selectivity assay, MMP-2; settings: Table 2 selectivity profile; read-out: IC50, Target: MMP 2
Sequence of recombinant human MMP-2 (P08253 110-660): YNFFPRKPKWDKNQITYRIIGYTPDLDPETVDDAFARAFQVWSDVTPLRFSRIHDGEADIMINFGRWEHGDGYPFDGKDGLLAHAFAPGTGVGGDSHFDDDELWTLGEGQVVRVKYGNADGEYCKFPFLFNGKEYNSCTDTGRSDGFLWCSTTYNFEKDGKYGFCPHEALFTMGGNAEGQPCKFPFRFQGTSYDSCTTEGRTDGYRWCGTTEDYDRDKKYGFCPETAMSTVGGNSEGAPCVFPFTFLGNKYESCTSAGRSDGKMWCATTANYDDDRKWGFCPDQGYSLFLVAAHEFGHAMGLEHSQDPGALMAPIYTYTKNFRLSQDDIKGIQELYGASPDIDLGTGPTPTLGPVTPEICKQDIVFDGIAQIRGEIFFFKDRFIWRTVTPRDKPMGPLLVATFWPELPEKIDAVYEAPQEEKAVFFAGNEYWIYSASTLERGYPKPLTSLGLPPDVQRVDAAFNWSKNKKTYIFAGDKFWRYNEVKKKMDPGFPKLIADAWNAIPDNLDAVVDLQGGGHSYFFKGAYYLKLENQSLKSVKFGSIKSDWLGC
Method: as §1, §2, §3

[9] = target: recombinant human MMP-14 (Homo sapiens (Human), UniProt P50281); assay: MMP selectivity assay, MMP-14; settings: Table 2 selectivity profile; read-out: IC50, Target: MMP 14
Method: as §1, §2, §3

[10] = target: recombinant human MMP-7 (Homo sapiens (Human), UniProt P09237); assay: MMP selectivity assay, MMP-7; settings: Table 2 selectivity profile; read-out: IC50, Target: MMP 7
Sequence of recombinant human MMP-7 (P09237 95-267): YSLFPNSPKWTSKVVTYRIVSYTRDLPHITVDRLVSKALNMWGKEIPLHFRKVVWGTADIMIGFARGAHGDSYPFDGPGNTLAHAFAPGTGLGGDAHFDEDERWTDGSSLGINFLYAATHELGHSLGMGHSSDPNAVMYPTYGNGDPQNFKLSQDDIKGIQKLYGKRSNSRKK
Method: as §1, §2, §3

[11] = Table 1, readout at time point 30 minutes, read-out: MMP-12 IC50
[12] = Table 2 selectivity profile, read-out: IC50, Target: MMP 12

With Cc1cc(C#Cc2ccc(Sc3ccoc3C3NC(=O)NC3=O)cc2)ccn1 (centres unmarked) [AC-1] the IC50 [1] was > 100 nM, the IC50 [2] was > 100 nM and the IC50 [3] was > 100 nM. The IC50 [4] was > 100 nM, the IC50 [5, 11] was 10 to 100 nM and the IC50 [5, 12] was 10 to 100 nM. For the same compound, the IC50 [6] was > 100 nM, the IC50 [7] was > 100 nM and the IC50 [8] was > 100 nM. For the same compound, the IC50 [9] was > 100 nM and the IC50 [10] was > 100 nM.

With Cc1cc(/C=C/c2ccc(Sc3ccoc3C3NC(=O)NC3=O)cc2)ccn1 (centres unmarked) [AC-2] the IC50 [1] was 10 to 100 nM, the IC50 [2] was 10 to 100 nM and the IC50 [3] was > 100 nM. The IC50 [4] was 10 to 100 nM, the IC50 [5, 11] was < 1 nM and the IC50 [5, 12] was < 1 nM. The IC50 [6] was 10 to 100 nM, the IC50 [7] was > 100 nM and the IC50 [8] was 1 to 10 nM. For the same compound, the IC50 [9] was > 100 nM and the IC50 [10] was > 100 nM.

With CCC1(c2occc2Sc2ccc(/C=C/c3ccnc(C)c3)cc2)NC(=O)NC1=O (centres unmarked) [AC-3] the IC50 [1] was 10 to 100 nM, the IC50 [2] was 10 to 100 nM and the IC50 [3] was > 100 nM. The IC50 [4] was 10 to 100 nM, the IC50 [5, 11] was < 1 nM and the IC50 [5, 12] was < 1 nM. The IC50 [6] was 1 to 10 nM, the IC50 [7] was 10 to 100 nM and the IC50 [8] was 1 to 10 nM. The IC50 [9] was > 100 nM and the IC50 [10] was > 100 nM.

For Cc1cc(C#Cc2ccc(Sc3ccncc3C3NC(=O)NC3=O)cc2)ccn1 (centres unmarked) [AC-4], the IC50 [1] was > 100 nM, the IC50 [2] was > 100 nM and the IC50 [3] was > 100 nM. The IC50 [4] was > 100 nM, the IC50 [5, 11] was 1 to 10 nM and the IC50 [5, 12] was 1 to 10 nM. The IC50 [6] was > 100 nM, the IC50 [7] was > 100 nM and the IC50 [8] was > 100 nM. The IC50 [9] was > 100 nM and the IC50 [10] was > 100 nM.

Cc1cc(/C=C/c2ccc(Sc3ccncc3C3NC(=O)NC3=O)cc2)ccn1 (centres unmarked) [AC-5] was tested, and the IC50 [1] was > 100 nM, the IC50 [2] was > 100 nM and the IC50 [3] was > 100 nM. The IC50 [4] was > 100 nM, the IC50 [5, 11] was < 1 nM and the IC50 [5, 12] was < 1 nM. The IC50 [6] was > 100 nM, the IC50 [7] was > 100 nM and the IC50 [8] was 10 to 100 nM. The IC50 [9] was > 100 nM and the IC50 [10] was > 100 nM.

In the case of Cc1cc(/C=C/c2ccc(Oc3ccncc3C3NC(=O)NC3=O)cc2)ccn1 (centres unmarked) [AC-6], the IC50 [1] is reported as > 100 nM, the IC50 [2] is reported as > 100 nM and the IC50 [3] is reported as > 100 nM. For the same compound, the IC50 [4] was > 100 nM, the IC50 [5, 11] was < 1 nM and the IC50 [5, 12] was < 1 nM. The IC50 [6] was 10 to 100 nM, the IC50 [7] was > 100 nM and the IC50 [8] was 10 to 100 nM. The IC50 [9] was > 100 nM and the IC50 [10] was > 100 nM.

In the case of Cc1cc(C#Cc2ccc(Oc3ccncc3C3NC(=O)NC3=O)cc2)ccn1 (centres unmarked) [AC-7], the IC50 [1] is reported as > 100 nM, the IC50 [2] is reported as > 100 nM and the IC50 [3] is reported as > 100 nM. For the same compound, the IC50 [4] was > 100 nM, the IC50 [5, 11] was 1 to 10 nM and the IC50 [5, 12] was 1 to 10 nM. The IC50 [6] was > 100 nM, the IC50 [7] was > 100 nM and the IC50 [8] was > 100 nM. For the same compound, the IC50 [9] was > 100 nM and the IC50 [10] was > 100 nM.

In the case of CCC1(c2cnccc2Sc2ccc(/C=C/c3ccnc(C)c3)cc2)NC(=O)NC1=O (centres unmarked) [AC-8], the IC50 [5, 11] is reported as < 1 nM.

With Cc1cc(C#Cc2ccc(Sc3ccsc3C3NC(=O)NC3=O)cc2)ccn1 (centres unmarked) [AC-9] the IC50 [1] was > 100 nM, the IC50 [2] was > 100 nM and the IC50 [3] was > 100 nM. The IC50 [4] was > 100 nM, the IC50 [5, 11] was < 1 nM and the IC50 [5, 12] was < 1 nM. For the same compound, the IC50 [6] was 10 to 100 nM, the IC50 [7] was > 100 nM and the IC50 [8] was 10 to 100 nM. For the same compound, the IC50 [9] was > 100 nM and the IC50 [10] was > 100 nM.

For Cc1cc(/C=C/c2ccc(Sc3ccsc3C3NC(=O)NC3=O)cc2)ccn1 (centres unmarked) [AC-10], the IC50 [1] was 1 to 10 nM, the IC50 [2] was 10 to 100 nM and the IC50 [3] was > 100 nM. For the same compound, the IC50 [4] was 10 to 100 nM, the IC50 [5, 11] was < 1 nM and the IC50 [5, 12] was < 1 nM. For the same compound, the IC50 [6] was 1 to 10 nM, the IC50 [7] was > 100 nM and the IC50 [8] was 1 to 10 nM. For the same compound, the IC50 [9] was > 100 nM and the IC50 [10] was > 100 nM.

Cc1cc(C#Cc2ccc(Sc3cnn(C)c3C3NC(=O)NC3=O)cc2)ccn1 (centres unmarked) [AC-11] was tested, and the IC50 [1] was > 100 nM, the IC50 [2] was > 100 nM and the IC50 [3] was > 100 nM. For the same compound, the IC50 [4] was > 100 nM, the IC50 [5, 11] was < 1 nM and the IC50 [5, 12] was < 1 nM. The IC50 [6] was 10 to 100 nM, the IC50 [7] was > 100 nM and the IC50 [8] was 10 to 100 nM. For the same compound, the IC50 [9] was > 100 nM and the IC50 [10] was > 100 nM.

In the case of Cc1cc(/C=C/c2ccc(Sc3cnn(C)c3C3NC(=O)NC3=O)cc2)ccn1 (centres unmarked) [AC-12], the IC50 [1] is reported as 10 to 100 nM, the IC50 [2] is reported as > 100 nM and the IC50 [3] is reported as > 100 nM. For the same compound, the IC50 [4] was > 100 nM, the IC50 [5, 11] was < 1 nM and the IC50 [5, 12] was < 1 nM. For the same compound, the IC50 [6] was 10 to 100 nM, the IC50 [7] was > 100 nM and the IC50 [8] was 1 to 10 nM. The IC50 [9] was > 100 nM and the IC50 [10] was > 100 nM.
